# Results as given in article PMC12390684 (Viruses, 2025).
# Square brackets hold non-standard residues; d marks the D form. Peptide text beside a SMILES is read from it. dHica = CC(C)C[C@@H](O)C(=O)O; NMeV = CN[C@H](C(=O)O)C(C)C; NMeA = CN[C@@H](C)C(=O)O; βAla = NCCC(=O)O
# Biological target: IN-GCN2 interaction (6xHis-IN / GST-GCN2) (UniProt P04585+Q9P2K8)
# Experiment: biochemical
# Format: binding, HIV-1 IN; human GCN2
# Conditions: screen, 100 µM; inactive = within 10% of the DMSO control
# Chain of IN-GCN2 interaction (6xHis-IN / GST-GCN2) (Q9P2K8 192-1024, other chains not shown): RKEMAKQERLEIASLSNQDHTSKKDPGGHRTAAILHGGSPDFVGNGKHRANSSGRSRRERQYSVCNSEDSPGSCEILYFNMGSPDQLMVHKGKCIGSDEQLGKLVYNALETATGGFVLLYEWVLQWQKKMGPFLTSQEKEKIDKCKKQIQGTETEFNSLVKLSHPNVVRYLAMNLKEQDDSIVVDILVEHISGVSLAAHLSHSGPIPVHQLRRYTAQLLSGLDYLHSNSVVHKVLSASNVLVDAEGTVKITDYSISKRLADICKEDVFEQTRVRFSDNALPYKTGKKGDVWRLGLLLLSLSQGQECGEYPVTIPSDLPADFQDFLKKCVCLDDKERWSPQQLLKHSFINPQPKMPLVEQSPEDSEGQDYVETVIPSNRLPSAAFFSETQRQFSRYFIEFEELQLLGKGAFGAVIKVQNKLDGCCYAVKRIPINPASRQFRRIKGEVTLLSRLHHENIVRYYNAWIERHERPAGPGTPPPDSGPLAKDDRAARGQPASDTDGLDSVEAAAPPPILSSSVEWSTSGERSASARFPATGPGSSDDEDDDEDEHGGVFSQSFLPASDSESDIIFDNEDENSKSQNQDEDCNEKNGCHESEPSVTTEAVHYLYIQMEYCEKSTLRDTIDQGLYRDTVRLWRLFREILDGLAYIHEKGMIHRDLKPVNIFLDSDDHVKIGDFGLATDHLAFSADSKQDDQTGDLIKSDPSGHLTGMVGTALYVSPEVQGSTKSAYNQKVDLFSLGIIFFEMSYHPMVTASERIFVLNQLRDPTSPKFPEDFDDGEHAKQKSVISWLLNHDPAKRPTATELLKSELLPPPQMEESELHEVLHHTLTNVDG
row,Compound,"effect on IN-GCN2 interaction in the screen, in words"
1,COc1cc2c3c(c1O)-c1ccccc1C[C@@H]3N(C)CC2 [NSC785159],inactive

# Same assay, conditions: screen, single dose 100 µM, single replicate; residual AlphaLISA signal normalized to DMSO control
row,Compound,IN-GCN2 interaction (%)
1,O=C1c2ccccc2C(=O)c2c1cc(O)c(O)c2O [NSC31754],87.55
2,CCOc1cc2c(cc1OC)CCN[C@H]2Cc1ccc(O)cc1 [NSC785185],75.32
3,CC[C@H](C)[C@@H]1NC(=O)[C@@H]2CCCN2C(=O)[C@@H](CC(C)C)OC(=O)CCNC(=O)[C@H](C)N(C)C(=O)[C@H](C(C)C)N(C)C1=O [NSC236580] (cyclo([dHica]PI[NMeV][NMeA][βAla])),98.06
4,COc1cc2c3c(c1OC)Oc1ccc(cc1)C[C@H]1c4c(cc(OC)c(OC)c4Oc4ccc(cc4)C[C@H]3N(C)CC2)CCN1C [NSC785174],57.96
5,COC(=O)CC[C@@H](C)[C@H]1CC[C@@]2(C)[C@@H]3C(=O)C[C@H]4C(C)(C)[C@@H](OC(C)=O)CC[C@]4(C)[C@H]3C(=O)C[C@]12C [NSC34202],97.47
6,CC(C)[C@@H]1NC(=O)[C@H](C)OC(=O)[C@@H](C(C)C)NC(=O)[C@@H](C(C)C)OC(=O)[C@H](C(C)C)NC(=O)[C@H](C)OC(=O)[C@@H](C(C)C)NC(=O)[C@@H](C(C)C)OC(=O)[C@H](C(C)C)NC(=O)[C@H](C)OC(=O)[C@@H](C(C)C)NC(=O)[C@@H](C(C)C)OC1=O [NSC122023],63.87
7,CC(=O)OC1C(OC(C)=O)C2C(C)CC3OC(=O)C(C)C3CC2(C)C1OC(C)=O (stereo not shown) [NSC266071],100.86
8,CC(=O)O[C@@H]1[C@@H](O)[C@H](O[C@H]2[C@H](OC(=O)[C@H]3CC[C@H]4[C@@H](C3)O[C@@]3(C[C@H](OC(=O)/C=C/c5ccccc5)[C@H](C)CO3)[C@]43CO3)O[C@H](C)[C@@H](O)[C@@H]2OC(C)=O)O[C@H](C)[C@H]1O [NSC328426],91.16
9,O=C(O)/C=C(/CC(=O)O)C(=O)O [NSC7616],85.71
10,C[C@@H]1C(=O)C[C@H]2C(C)(C)CCC[C@]2(C)[C@@]1(O)CCc1ccoc1 [NSC332876],44.59
11,CC(=O)CCCCn1c(=O)c2c(ncn2C)n(C)c1=O [NSC637086],87.24
12,C=C1C(=O)O[C@@H]2C[C@@H](C)[C@@H]3C=CC(=O)[C@@]3(C)[C@@H](O)[C@H]12 [NSC85236],117.15
13,O=C1NC(O)CCN1[C@@H]1O[C@H](CO)[C@@H](O)[C@H]1O (stereo partly shown) [NSC112907],123.97
14,C=Cc1cc(OC)c2c(c1)c(=O)oc1c2cc(OC)c2c(O)ccc(C3OC(C)C(O)C(C)(O)C3O)c21 (stereo not shown) [NSC354844],85.63
15,CC1=C(C)C(=O)O[C@@H]([C@](C)(O)[C@]2(O)CC[C@@]3(O)[C@@H]4C[C@H]5O[C@]56CC=CC(=O)[C@]6(C)[C@H]4CC[C@]23C)C1 [NSC179834],38.70
16,Br.C=CC1CN2CCC1CC2C(O)c1ccnc2ccc(OC)cc12 (stereo not shown) [NSC12865],97.92
17,Nc1ncnc2c1ncn2C1OCC(O)C1O (stereo not shown) [NSC330917],127.88
18,NCCOC[C@H](N)C(=O)O [NSC136035],90.45
19,[O-][N+]12CCCCC1CCCC2CO (stereo not shown) [NSC34552],80.42
20,CC(C)=CCCC(C)C1=C(O)C(=O)C(C)=CC1=O (stereo not shown) [NSC365793],50.48
21,COc1cc2oc3cc(=O)cc4oc(-c5ccccc5)cc(c2c2c1CCC(c1ccccc1)O2)c43 (stereo not shown) [NSC376248],71.04

row,Compound,IN-GCN2 interaction (%)
1,Cc1ccc(S(=O)(=O)NNC(=O)c2cc(C)c(C)cc2N)cc1 [NSC107453],88.25
2,CC(=O)O[C@H]1C(=O)[C@@]2(C)[C@H]([C@H](OC(=O)c3ccccc3)[C@]3(O)C[C@H](O)C(C)=C1C3(C)C)[C@]1(OC(C)=O)CO[C@@H]1C[C@@H]2O [NSC330753],109.90
3,COc1ccc2c3c([nH]c2c1)[C@H]1C[C@H]2[C@H](C[C@@H](O)[C@H](OC)[C@H]2C(=O)O)CN1CC3 [NSC81463],97.85
4,C=C1C(=O)C23C(O)C1CCC2C12CCCC(C)(COC(C)=O)C1C(O)C3(O)OC2 (stereo not shown) [NSC642099],95.31
5,CCCn1cc2c3c(cccc31)[C@H]1C[C@@H](C)CN(C)[C@@H]1C2.O=C(O)C(O)C(O)C(=O)O [NSC332294],41.41
6,CC1=CC(O)C(O)C2(C)C1CC1OC(=O)C(O)C3C(C)C(O)C4(O)OCC13C42 (stereo not shown) [NSC14974],90.88
7,CC(O)C1/C=C/C=C/C(=O)OC2CC3OC4C5OC5(C)C(O)CC4(COC(=O)C(O)C(C)CCO1)C2(C)C31CO1 (stereo not shown) [NSC327993],115.91
8,COc1cc2c(cc1O)C[C@H]1c3c(c(OC)c4c(c3-2)OCO4)CCN1C [NSC785179],39.12
9,CC(C)=CCc1c2c(c3occ(-c4ccc(O)c(O)c4)c(=O)c3c1O)C=CC(C)(C)O2 [NSC5113],36.50
10,Cl.NC(=O)c1cn(C2OC(CO)C(O)C2O)c2ncnc(N)c12 (stereo not shown) [NSC143648],113.09
11,COc1cc2c(cc1OC)C13CCN4CC5CCOC6CC(=O)N2C1C6C5CC43 (stereo not shown) [NSC72917],90.85
12,COC(=O)[C@@H]1[C@H]2C[C@@H]3c4[nH]c5ccccc5c4CCN3C[C@@H]2CC[C@@H]1O [NSC72116],99.30
13,Cc1cc2nc3[nH]c(=O)[nH]c(=O)c3nc2cc1C [NSC96911],89.81
14,CC(=O)C(=O)N[C@@H]1/C=C(C)/C=C/[C@@H](O)C/C=C(C)/C=C/[C@@H](O)C[C@H]2OC(=O)[C@]1(C)C(=O)[C@@H]2C [NSC145118],98.66
15,CO[C@H]1C[C@@H]2\C=C(C)/C=C/C=C\C(=O)N[C@H](c3ccccc3)C/C=C/CC[C@H](O)CC(=O)C2=C1O [NSC343256],61.66
16,O=C(O)/C(O)=C(/O)C(=O)O [NSC30238],100.21
17,O=C1N[C@@H]2C(=C[C@H](O)[C@@H](O)[C@H]2O)c2cc3c(cc21)OCO3 [NSC349155],100.93
18,COc1cc2c(cc1O)[C@@H](Cc1ccc(Oc3cc(C[C@H]4c5cc(O)c(OC)cc5CCN4C)ccc3O)cc1)N(C)CC2 [NSC785184],46.86
19,COc1cc2c3c(c1O)-c1cc(O)ccc1C[C@H]3N(C)CC2 [NSC785167],75.29
20,COc1cc2cc(c1Cl)N(C)C(=O)C[C@H](OC(=O)[C@H](C)N(C)C(C)=O)[C@]1(C)O[C@H]1[C@H](C)[C@@H]1C[C@@](O)(NC(=O)O1)[C@H](OC)/C=C/C=C(\C)C2 [NSC153858],76.02
21,CC(C)[C@@](O)(C(=O)OCC1=CCN2CC[C@H](O)[C@@H]12)[C@H](C)O [NSC89937],65.06

row,Compound,IN-GCN2 interaction (%)
1,CC[C@@H](O)C[C@H]1CCC[C@@]2(C[C@@H]3OC(=O)/C=C/[C@@](C)(O)[C@@H](O)[C@H](C)[C@@H](O)[C@H](OC4CCC(N(C)C)C(C)O4)[C@@H](O)[C@](C)(O)CCCCC/C=C/[C@@H]4CC(C)(C)O[C@@]4(O)C[C@H](O2)[C@H]3C)O1 (stereo partly shown) [NSC76627],52.50
2,COc1ccc(C[C@@H]2NC[C@@H](O)[C@@H]2OC(C)=O)cc1.Cl [NSC147340],88.95
3,C[C@]12CC[C@H](O)C[C@H]1CC[C@@H]1[C@@H]2CC[C@]2(C)[C@@H](C3=CC(=O)OC3)CC[C@]12O [NSC407806],101.32
4,C[C@]12CC[C@@H]3c4ccc(O)cc4CC[C@H]3[C@@H]1CCC2=O [NSC9699],98.84
5,CC[C@H](C)C(=O)O[C@H]1CCC=C2C=C[C@H](C)[C@H](CC[C@@H]3C[C@@H](O)CC(=O)O3)[C@H]21 [NSC281245],54.75
6,CC1(C)CCC[C@]2(C)C3=C(CC[C@@H]12)C(=O)OC3 [NSC375294],100.67
7,C=C(C)[C@H]1Cc2c(ccc3c2O[C@@H]2COc4cc(OC)c(OC)cc4[C@@H]2C3=O)O1 [NSC26258],55.12
8,CC(=O)O[C@H]1C[C@H](O[C@H]2[C@@H](O)C[C@H](O[C@H]3[C@@H](O)C[C@H](O[C@H]4CC[C@@]5(C)[C@H](CC[C@@H]6[C@@H]5CC[C@]5(C)[C@@H](C7=CC(=O)OC7)CC[C@]65O)C4)O[C@@H]3C)O[C@@H]2C)O[C@H](C)[C@H]1O[C@@H]1O[C@H](CO)[C@@H](O)[C@H](O)[C@H]1O [NSC7532],117.74
9,C=C1C(=O)O[C@@H]2[C@H]1CC[C@H](C)[C@@H]1C=CC(=O)[C@@]21C [NSC85235],40.36
10,CCC(C)c1cnc(CC(C)C)c(=O)n1O (stereo not shown) [NSC22939],88.97
11,Nc1ncnc2c1ncn2[C@@H]1C=C(CO)[C@@H](O)[C@H]1O [NSC316458],111.58
12,C=C1C(=O)[C@]23[C@H](O)[C@H]1CC[C@H]2[C@@]12CO[C@]3(O)[C@@H](O)[C@@H]1C(C)(C)CC[C@@H]2O [NSC250682],99.31
13,COc1ccc2c(c1OC)-c1cccc3c1[C@@H](C2)N(C)CC3 [NSC785153],61.13
14,OC[C@H]1O[C@@](CO)(O[C@H]2O[C@H](CO)[C@@H](O)[C@H](O)[C@H]2O)[C@@H](O[C@H]2O[C@H](CO)[C@@H](O)[C@H](O)[C@H]2O)[C@@H]1O [NSC2080],102.20
15,COc1c(O)cc2oc3cc(O)c(CC=C(C)C)c(O)c3c(=O)c2c1CC=C(C)C [NSC30552],60.59
16,CN1[C@@H]2CC[C@H]1CC(O)C2 (stereo partly shown) [NSC43871],99.50
17,COC(=O)C1C2CC3c4[nH]c5cc(OC)ccc5c4CCN3CC2CC(OC(=O)CCc2cc(OC)c(OC)c(OC)c2)C1OC (stereo not shown) [NSC29854],63.08
18,C=C1C(=O)C2=CC1CCC(=O)C1(C)CCC(OC(C)=O)C(C)(C)C1CC2O (stereo not shown) [NSC302979],105.64
19,O=C(O)c1cc(O)c(O)c(O)c1 [NSC20103],83.04

# Same assay, conditions: screen, single dose 100 µM, single replicate; residual AlphaLISA signal normalized to DMSO control; listed as 46728
row,Compound,IN-GCN2 interaction (%)
1,C=C1C(=O)OC2CC1C(OC(C)=O)C/C(C)=C/CC/C(C)=C\CCC2(C)O (stereo not shown) [NSC46728],93.27

# Same assay, conditions: screen, single dose 100 µM, single replicate; residual AlphaLISA signal normalized to DMSO control; listed as 785159
row,Compound,IN-GCN2 interaction (%)
1,COc1cc2c3c(c1O)-c1ccccc1C[C@@H]3N(C)CC2 [NSC785159],94.21
